Laboratory results from PubChem BioAssay (NCI).
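In this assay, cells in 96-well plates receive the compound at five concentrations for 48 hours. Endpoints are linearly interpolated between the surrounding concentrations. Here, GI50 denotes the concentration required for 50% inhibition of growth. Definition used: TGI = concentration required for complete inhibition of growth.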

Experiments:
Assay in all cases: NCI anticancer screen, dose series, 48 h
[1] = test system: 786-0 renal
[2] = test system: A498 renal
[3] = test system: A549 NSCLC
[4] = test system: ACHN renal
[5] = test system: BT-549 breast
[6] = test system: CAKI-1 renal
[7] = test system: CCRF-CEM leukemia
[8] = test system: COLO 205 colon
[9] = test system: DU-145 prostate
[10] = test system: EKVX NSCLC
[11] = test system: HCC-2998 colon
[12] = test system: HCT-116 colon
[13] = test system: HCT-15 colon
[14] = test system: HL-60(TB) leukemia
[15] = test system: HOP-62 NSCLC
[16] = test system: HT29 colon
[17] = test system: IGROV1 ovarian
[18] = test system: K-562 leukemia
[19] = test system: KM12 colon
[20] = test system: LOX IMVI melanoma
[21] = test system: M14 melanoma
[22] = test system: MALME-3M melanoma
[23] = test system: MCF7 breast
[24] = test system: MDA-MB-231 breast
[25] = test system: MDA-MB-435
[26] = test system: MDA-N
[27] = test system: MOLT-4 leukemia
[28] = test system: NCI-H226 lung
[29] = test system: NCI-H23 lung
[30] = test system: NCI-H460 lung
[31] = test system: NCI/ADR-RES ovarian
[32] = test system: OVCAR-3 ovarian
[33] = test system: OVCAR-4 ovarian
[34] = test system: OVCAR-5 ovarian
[35] = test system: OVCAR-8 ovarian
[36] = test system: PC-3 prostate
[37] = test system: RXF 393 renal
[38] = test system: SF-268 CNS
[39] = test system: SF-295 CNS
[40] = test system: SF-539 CNS
[41] = test system: SK-MEL-2 melanoma
[42] = test system: SK-MEL-28 melanoma
[43] = test system: SK-MEL-5 melanoma
[44] = test system: SK-OV-3 ovarian
[45] = test system: SN12C renal
[46] = test system: SNB-19 CNS
[47] = test system: SNB-75 CNS
[48] = test system: SW-620 colon
[49] = test system: TK-10 renal
[50] = test system: U251 CNS
[51] = test system: UACC-257 melanoma
[52] = test system: UO-31 renal
[53] = test system: HS 578T breast
[54] = test system: RPMI-8226 leukemia
[55] = test system: SR leukemia
[56] = test system: HOP-92 NSCLC
[57] = test system: NCI-H522 lung
[58] = test system: UACC-62 melanoma
[59] = test system: T-47D breast

C=Cc1nc2nnc(CCCCCCCCc3nnc4nc(C=C)[nH]n34)n2[nH]1
TGI [1]: > 100 µM | TGI [2]: > 100 µM | TGI [3]: > 100 µM | TGI [4]: > 100 µM | TGI [5]: > 100 µM | TGI [6]: > 100 µM | TGI [7]: > 100 µM | TGI [8]: > 100 µM | TGI [9]: > 100 µM | TGI [10]: > 100 µM | TGI [11]: > 100 µM | TGI [12]: > 100 µM | TGI [13]: > 100 µM | TGI [14]: > 100 µM | TGI [15]: > 100 µM | TGI [16]: > 100 µM | TGI [17]: > 100 µM | TGI [18]: > 100 µM | TGI [19]: > 100 µM | TGI [20]: > 100 µM | TGI [21]: > 100 µM | TGI [22]: > 100 µM | TGI [23]: > 100 µM | TGI [24]: > 100 µM | TGI [25]: > 100 µM | TGI [26]: > 100 µM | TGI [27]: > 100 µM | TGI [28]: > 100 µM | TGI [29]: > 100 µM | TGI [30]: > 100 µM | TGI [31]: > 100 µM | TGI [32]: > 100 µM | TGI [33]: > 100 µM | TGI [34]: > 100 µM | TGI [35]: > 100 µM | TGI [36]: > 100 µM | TGI [37]: > 100 µM | TGI [38]: > 100 µM | TGI [39]: > 100 µM | TGI [40]: > 100 µM | TGI [41]: > 100 µM | TGI [42]: > 100 µM | TGI [43]: > 100 µM | TGI [44]: > 100 µM | TGI [45]: > 100 µM | TGI [46]: > 100 µM | TGI [47]: > 100 µM | TGI [48]: > 100 µM | TGI [49]: > 100 µM | TGI [50]: > 100 µM | TGI [51]: > 100 µM | TGI [52]: > 100 µM

C[C@@]1(Br)C[C@@](C)(Cl)[C@@H](Br)CC1/C=C/Cl (stereo partly specified)
TGI [1]: 30.2 µM | TGI [3]: 61.7 µM | TGI [4]: 32 µM | TGI [5]: 36 µM | TGI [7]: 27.7 µM | TGI [8]: 29 µM | TGI [11]: > 100 µM | TGI [12]: 22.9 µM | TGI [13]: > 100 µM | TGI [15]: 30.7 µM | TGI [53]: 30.6 µM | TGI [16]: 29.6 µM | TGI [17]: 86.1 µM | TGI [18]: > 100 µM | TGI [19]: 29.6 µM | TGI [20]: 31.4 µM | TGI [21]: 33.2 µM | TGI [23]: 31.7 µM | TGI [24]: 36.2 µM | TGI [25]: 39.2 µM | TGI [26]: 29.7 µM | TGI [27]: 33.8 µM | TGI [28]: 22.8 µM | TGI [29]: > 100 µM | TGI [30]: > 100 µM | TGI [31]: 25.8 µM | TGI [32]: 28.4 µM | TGI [33]: > 100 µM | TGI [34]: 29.1 µM | TGI [35]: 29.5 µM | TGI [36]: 29.3 µM | TGI [54]: 73.7 µM | TGI [38]: 23 µM | TGI [39]: 27.4 µM | TGI [40]: 31 µM | TGI [41]: 33.2 µM | TGI [42]: 53.7 µM | TGI [43]: 26.4 µM | TGI [44]: 37 µM | TGI [45]: 28.2 µM | TGI [46]: 45.3 µM | TGI [47]: 25.4 µM | TGI [55]: 41 µM | TGI [48]: 91.8 µM | TGI [49]: 38 µM | TGI [50]: 42.6 µM | TGI [51]: 37.3 µM | TGI [52]: 37.4 µM

COc1ccc(C(=O)NCCC2CN(S(=O)(=O)C(F)(F)F)c3ccccc32)c(OC)c1 (stereo unspecified)
TGI [1]: > 100 µM | TGI [2]: > 100 µM | TGI [3]: > 100 µM | TGI [4]: > 100 µM | TGI [6]: > 100 µM | TGI [7]: 70.3 µM | TGI [8]: > 100 µM | TGI [9]: > 100 µM | TGI [10]: > 100 µM | TGI [11]: > 100 µM | TGI [12]: > 100 µM | TGI [13]: > 100 µM | TGI [15]: > 100 µM | TGI [56]: > 100 µM | TGI [53]: > 100 µM | TGI [16]: 73.8 µM | TGI [17]: > 100 µM | TGI [18]: > 100 µM | TGI [19]: 71.3 µM | TGI [21]: > 100 µM | TGI [22]: 35.3 µM | TGI [23]: > 100 µM | TGI [24]: > 100 µM | TGI [25]: > 100 µM | TGI [26]: > 100 µM | TGI [27]: > 100 µM | TGI [29]: > 100 µM | TGI [30]: > 100 µM | TGI [57]: 46.8 µM | TGI [31]: 87.2 µM | TGI [32]: > 100 µM | TGI [33]: > 100 µM | TGI [34]: > 100 µM | TGI [36]: > 100 µM | TGI [54]: > 100 µM | TGI [37]: > 100 µM | TGI [39]: > 100 µM | TGI [41]: > 100 µM | TGI [42]: > 100 µM | TGI [43]: 43.6 µM | TGI [44]: > 100 µM | TGI [46]: > 100 µM | TGI [55]: > 100 µM | TGI [48]: > 100 µM | TGI [50]: > 100 µM | TGI [51]: > 100 µM | TGI [58]: 80.1 µM | TGI [52]: > 100 µM

CC1(C)C(N(O)C(=O)Nc2ccc(Cl)cc2)N(c2ccc(Cl)cc2)C(=O)N1CC(=O)N/N=C/C=C/c1ccc([N+](=O)[O-])o1 (stereo unspecified)
GI50 [1]: 2.75 µM | TGI [1]: 10.3 µM | GI50 [2]: 1.73 µM | TGI [2]: 4.12 µM | GI50 [3]: 3.11 µM | TGI [3]: > 28.5 µM | GI50 [4]: 3.16 µM | TGI [4]: > 100 µM | GI50 [5]: 1.6 µM | TGI [5]: 5.19 µM | GI50 [6]: > 23.2 µM | TGI [6]: > 100 µM | GI50 [7]: 0.604 µM | TGI [7]: 2.2 µM | GI50 [8]: 1.33 µM | TGI [8]: 2.85 µM | GI50 [9]: 1.85 µM | TGI [9]: 4.07 µM | GI50 [10]: 3.17 µM | TGI [10]: > 83.4 µM | GI50 [11]: 1.7 µM | TGI [11]: 3.43 µM | GI50 [12]: 0.731 µM | TGI [12]: 2.52 µM | GI50 [13]: 2.49 µM | TGI [13]: > 100 µM | GI50 [14]: 1.09 µM | TGI [14]: 4 µM | GI50 [15]: 2.76 µM | TGI [15]: 6.2 µM | GI50 [56]: 0.522 µM | TGI [56]: 2.31 µM | GI50 [53]: 3 µM | TGI [53]: > 84.4 µM | GI50 [16]: 1.92 µM | TGI [16]: > 22.6 µM | GI50 [17]: 2.46 µM | GI50 [18]: 1.57 µM | TGI [18]: 6.03 µM | GI50 [19]: 1.71 µM | TGI [19]: 3.76 µM | GI50 [20]: 1.56 µM | TGI [20]: 3.04 µM | GI50 [21]: 1.88 µM | TGI [21]: 7.08 µM | GI50 [22]: 1.29 µM | TGI [22]: 3.08 µM | GI50 [23]: 1.01 µM | TGI [23]: > 26.7 µM | GI50 [24]: 2.04 µM | TGI [24]: 7.57 µM | GI50 [25]: 2.61 µM | TGI [25]: 10.9 µM | GI50 [27]: 0.804 µM | TGI [27]: 4.47 µM | GI50 [28]: 1.99 µM | TGI [28]: 4.88 µM | GI50 [29]: 2.13 µM | TGI [29]: 5.56 µM | GI50 [30]: 2.27 µM | TGI [30]: 6.39 µM | GI50 [57]: 2.23 µM | TGI [57]: > 21.3 µM | GI50 [31]: > 100 µM | TGI [31]: > 100 µM | GI50 [32]: 1.49 µM | TGI [32]: 3.96 µM | GI50 [33]: 3.87 µM | TGI [33]: > 100 µM | GI50 [34]: 3.81 µM | TGI [34]: 14 µM | GI50 [35]: 1.86 µM | GI50 [36]: 0.679 µM | GI50 [54]: 0.327 µM | TGI [54]: 1.63 µM | GI50 [37]: 0.337 µM | TGI [37]: 1.64 µM | GI50 [38]: 3.8 µM | TGI [38]: > 59 µM | GI50 [39]: 2.55 µM | TGI [39]: > 100 µM | GI50 [40]: 1.81 µM | TGI [40]: 3.81 µM | GI50 [41]: 0.946 µM | TGI [41]: 4.42 µM | GI50 [42]: 1.61 µM | TGI [42]: 3.16 µM | GI50 [43]: 1.32 µM | TGI [43]: 2.76 µM | GI50 [44]: 4.48 µM | TGI [44]: > 100 µM | GI50 [45]: 1.73 µM | TGI [45]: 9.73 µM | GI50 [46]: 2.27 µM | TGI [46]: 6.73 µM | GI50 [47]: 1.88 µM | TGI [47]: 7.11 µM | GI50 [55]: 0.273 µM | TGI [55]: 1.95 µM | GI50 [48]: 1.31 µM | TGI [48]: 3.52 µM | GI50 [59]: 3.47 µM | TGI [59]: > 70.1 µM | GI50 [49]: 4.06 µM | TGI [49]: > 100 µM | GI50 [50]: 1.57 µM | TGI [50]: > 20.7 µM | GI50 [51]: 1.58 µM | TGI [51]: 3.52 µM | GI50 [58]: 1.35 µM | TGI [58]: 3.91 µM | GI50 [52]: 2.64 µM | TGI [52]: > 20.8 µM
